The values that follow come from PMC6629785, “Synthesis and Pharmacological Evaluation of a Novel Peptide Based on Anemonia sulcata BDS-I Toxin as a New KV3.4 Inhibitor Exerting a Neuroprotective Effect Against Amyloid-β Peptide” (Frontiers in Chemistry, 2019).

For this test, the target named is T1, KV3.4 channels (Homo sapiens, UniProt Q03721).
T1 construct: expressed in transfected cells; host or cells: CHO cells, transient transfection with Lipofectamine 2000; cDNAs provided by Professor Goldstein, University of Chicago
T1 sequence (Q03721 1-635): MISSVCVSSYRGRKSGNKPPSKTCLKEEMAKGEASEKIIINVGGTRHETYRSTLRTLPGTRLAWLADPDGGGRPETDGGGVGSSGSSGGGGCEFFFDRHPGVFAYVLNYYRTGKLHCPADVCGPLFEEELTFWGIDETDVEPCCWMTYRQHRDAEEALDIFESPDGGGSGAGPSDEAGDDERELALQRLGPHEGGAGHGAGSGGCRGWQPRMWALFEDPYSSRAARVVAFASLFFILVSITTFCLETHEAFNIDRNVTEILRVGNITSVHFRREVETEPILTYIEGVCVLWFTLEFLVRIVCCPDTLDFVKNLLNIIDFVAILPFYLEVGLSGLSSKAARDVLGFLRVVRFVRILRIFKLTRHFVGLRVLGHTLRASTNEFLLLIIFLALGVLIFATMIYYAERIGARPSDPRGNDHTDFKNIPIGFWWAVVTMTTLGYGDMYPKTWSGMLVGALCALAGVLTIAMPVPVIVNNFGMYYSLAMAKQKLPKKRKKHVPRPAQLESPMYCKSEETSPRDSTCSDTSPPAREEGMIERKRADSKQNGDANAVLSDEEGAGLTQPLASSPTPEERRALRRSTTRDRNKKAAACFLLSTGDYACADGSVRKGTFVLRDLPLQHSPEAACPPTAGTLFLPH
T1 sequence (Q9Y6H6 1-103 partner): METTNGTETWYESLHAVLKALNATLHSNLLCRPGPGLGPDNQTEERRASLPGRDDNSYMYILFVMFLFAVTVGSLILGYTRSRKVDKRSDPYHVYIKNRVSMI
As to the kind of experiment: Whole-cell patch clamp of Kv3.4 currents in CHO cells transiently transfected with Kv3.4/MiRP2. It counts as cell-based. The following applies: peptide 100 nM, acute application; CHO cells transfected with Kv3.4/MiRP2; whole-cell patch clamp. As for the experimental part: KV3.4 and MiRP2 channel subunits were expressed in Chinese hamster ovary (CHO) cells by transient transfection. CHO cells were grown in 100 mm plastic Petri dishes in Dulbecco's Modified Eagle Medium containing 10% fetal bovine serum (FBS), non-essential amino acids (0.1 mm), penicillin (50 U/ml), and streptomycin (50 μg/ml) in a humidified atmosphere at 37°C with 5% CO2 (Miceli et al., [2015]). KV3.4 and MiRP2 cDNAs were kindly provided by the Professor Goldstein of the Department of Pediatrics and Institute for Molecular Pediatric Sciences, University of Chicago, USA. For electrophysiological experiments, cells were seeded on glass cover-slips (Glaswarenfabrik Karl Hecht KG, Sondheim, Germany) coated with poly-L-lysine (50 μg/mL) and transfected the next day with the appropriate cDNAs using Lipofectamine 2000 according to guidelines for transfection. We performed electrophysiological experiments 48 h after transfection.
Currents from CHO cells were recorded at room temperature 1-2 days after transfection. The extracellular solution contained the following (in mM): 138 NaCl, 5.4 KCl, 2 CaCl2, 1 MgCl2, 10 glucose and 10 HEPES, adjusted pH 7.4 with NaOH. The pipette solution contained (in mM) the following: 140 KCl, 2 MgCl2, 10 EGTA, 10 HEPES, 5 Mg-ATP, adjusted pH 7.4 with KOH (Miceli et al., [2015]). KV3.4 currents were measured by applying voltage steps from −100 mV to +60 mV from a holding potential of −80 mV (Abbott et al., [2001]). Moreover, the total outward K^+ currents were recorded in NGF-differentiated PC-12 cells using the extracellular solution contained the following (in mM): 150 NaCl, 5.4 KCl, 3 CaCl2, 1 MgCl2, 10 HEPES, adjusted pH 7.4 with NaOH. The pipette solution contained the following (in mM): 140 KCl, 2 MgCl2, 10 HEPES, 10 glucose, 10 EGTA, and 1 Mg-ATP adjusted at pH 7.4 with KOH (Diochot et al., [1998]). All experiments were performed in the presence of 50 nM tetrodotoxin (TTX) and 10 μ M nimodipine in the extracellular solution. To discriminate K^+ current components appropriate electrophysiological protocols were used (Pannaccione et al., [2007]). Steady-state activation and inactivation properties were measured by using appropriate protocols (Pannaccione et al., [2005]). Capacitive currents were elicited by 5-mV depolarizing pulses from −80 mV and acquired at a sampling rate of 50 kHz. The capacitance of the membrane was calculated according to the following equation: Cm = τc·Io/ΔEm (1-I∞/Io), where Cm is membrane capacitance, τc is the time constant of the membrane capacitance, Io is the maximum capacitance current value, ΔEm is the amplitude of the voltage step, and I∞ is the amplitude of the steady-state current. K^+ currents were recorded by patch-clamp technique in CHO and NGF-differentiated PC-12 cells using a commercially available amplifier (Axopatch 200B, Molecular Devices) and Digidata 1322A interface (Molecular Devices, USA). The whole-cell configuration of the patch-clamp technique was adopted using glass micropipettes with a resistance of 2.5-5.0 MΩ. Data were acquired and analyzed using the pClamp software (version 9, Molecular Devices).
For the acute treatment, each peptide has been added in the extracellular solution. For each cell, we first recorded K^+ currents as previously described, in the absence of peptides. After that, we switched from the extracellular solution without BDS-I peptides to the extracellular solution containing the BDS-I peptide. In these conditions, we recorded K^+ currents until the steady-state was reached. This protocol has been performed to test the effect on KV3.4 currents of each BDS-I fragment as well as of BDS-I[1-8scr].
To identify the smallest BDS-I amino acid sequence able to block Kv3.4 activity, we evaluated the effect of the newly synthesized BDS-I fragments in CHO cells transiently transfected with Kv3.4/MiRP2, by patch clamp technique in whole cell configuration. […]
For orientation: The patch-clamp technique gives a direct electrical read-out from membranes.
Consider “H-GDLWILRG-OH [BDS-I[13-20], overlapping 8-amino-acid fragment of BDS-I]”, for which the “ability to inhibit Kv3.4 currents (in words)” value is given as “did not”. With “H-GYGYTSNA-OH [BDS-I[25-32], overlapping 8-amino-acid fragment of BDS-I]”, the “ability to inhibit Kv3.4 currents (in words)” value is on record as “did not”. With “H-NAYKWPNI-OH [BDS-I[31-38], overlapping 8-amino-acid fragment of BDS-I]” the entry was “did not”. Take “H-NIAAYPH-OH [BDS-I[37-43], C-terminal 7-amino-acid fragment of BDS-I]”: the “ability to inhibit Kv3.4 currents (in words)” value is on record as “did not”.

In the case of “H-RGTAPGGY-OH [BDS-I[19-26], overlapping 8-amino-acid fragment of BDS-I]”, the “ability to inhibit Kv3.4 currents (in words)” value was “did not”. With “H-SGKPGRGD-OH [BDS-I[7-14], overlapping 8-amino-acid fragment of BDS-I]” the entry was “did not”.
